Experimental data from patent US20150031739A1, “PANOBINOSTAT FOR USE IN THE TREATMENT OF HIV-1” (Aarhus Universitet, priority 2012, published 2015).

Key:
[1] = test system: HIV-1 expression in U1 cells; assay: HIV-1 activation from U1 cells (p24 gag ELISA); assay type: cell-based; conditions: 48 hours
Method: (§1) HIV-1 activation from U1 cells: U1 cells (obtained through the NIH AIDS Reagent Program) are seeded at 2*10^5/well in a 96-well format in 100 uL RPMI media supplemented with 10% heat inactivated Foetal Bovine Serum and 1% penicillin/streptomycin. HDACi and PMA as positive control is added at desired concentrations in 100 uL. Identical DMSO levels is used for untreated control. All stimulations are performed in triplicate. 48 hours later supernatant is harvested and left for inactivation in 1% Empegen for 1 hour. Levels of HIV-1 p24 gag levels is determined by ELISA as described by the manufacturer (Aalto Bioreagents, Dublin, Ireland).

[2] = test system: HIV-1 expression in ACH2 cells; assay: HIV-1 activation from ACH2 cells (p24 gag ELISA); assay type: cell-based; conditions: 48 hours
Method: as §1, with “ACH2” for “U1”, “1*10^5/well” for “2*10^5/well”, “Samples are diluted 1/500 and levels” for “Levels”, “gag” for “gag levels”

CCR5 = conditions: monocytes; cited from earlier work
CXCR4 = conditions: CD4+ T-cells; cited from earlier work
latent viral reservoir = conditions: clinical study; effect could not be sustained in further studies; cited from earlier work

SMILES	fold increase in median p24 levels with reference to untreated cultures ([1]; 125 nM) [fold]	fold increase in median p24 levels with reference to untreated cultures ([1]; 250 nM) [fold]	fold increase in median p24 levels with reference to untreated cultures ([1]; 500 nM) [fold]	fold increase in median p24 levels with reference to untreated cultures ([2]; 125 nM) [fold]	fold increase in median p24 levels with reference to untreated cultures ([2]; 250 nM) [fold]	fold increase in median p24 levels with reference to untreated cultures ([2]; 500 nM) [fold]	surface expression of CCR5 (CCR5)	surface expression of CXCR4 (CXCR4)	fold increase in median p24 levels with reference to untreated cultures ([1]; 0.25 mM) [fold]	fold increase in median p24 levels with reference to untreated cultures ([1]; 0.5 mM) [fold]	patients in whom depletion of the latent viral reservoir was seen (latent viral reservoir)	fold increase in median p24 levels with reference to untreated cultures ([2]; 0.25 mM) [fold]	fold increase in median p24 levels with reference to untreated cultures ([2]; 0.5 mM) [fold]
O=C(CCCCCCC(=O)Nc1ccccc1)NO [SAHA, suberoylanilide hydroxamic acid]	1.0	1.5	3.1	1.4	2.4	6.9	–	–	–	–	–	–	–
CCN(CC)Cc1ccc2cc(COC(=O)Nc3ccc(C(=O)NO)cc3)ccc2c1 [ITF2357]	3.2	9.2	–	6.2	18.5	–	decreased surface expression	decreased surface expression	–	–	–	–	–
CCCC(CCC)C(=O)O [VPA, valproic acid]	–	–	–	–	–	–	–	–	1.4	2.8	3 of 4	2.1	7.3
O=C(/C=C/c1cccc(S(=O)(=O)Nc2ccccc2)c1)NO [PXD101]	2.4	7.4	–	5.8	18.3	–	–	–	–	–	–	–	–
